The target of this assay is T1, human TGR5 (h-TGR5) (Homo sapiens, UniProt Q8TDU6).
T1 construct: expressed in transfected cells
T1 sequence (Q8TDU6 1-330): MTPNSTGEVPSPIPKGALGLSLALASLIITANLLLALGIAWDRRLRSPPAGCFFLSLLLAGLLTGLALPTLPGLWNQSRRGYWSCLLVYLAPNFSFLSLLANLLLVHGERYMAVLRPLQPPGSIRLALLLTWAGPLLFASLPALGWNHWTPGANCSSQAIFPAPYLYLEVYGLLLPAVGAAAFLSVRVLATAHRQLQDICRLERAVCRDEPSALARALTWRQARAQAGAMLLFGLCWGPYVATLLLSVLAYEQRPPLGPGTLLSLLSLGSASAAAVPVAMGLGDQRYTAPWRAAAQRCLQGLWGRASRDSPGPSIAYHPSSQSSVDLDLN
The assay is described as follows: TGR5/CRE-Luciferiase Assay (HEK 293 hTGR5/CRE-Luc cells). The assay is classed as cell-based. The method in brief: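 HEK293 cells stably carrying hTGR5 and a CRE-luciferase reporter were exposed to serially diluted compounds (diluted in DMEM with 5% DMSO) for 6 h. Cells were then lysed in luciferase buffer, luminescence was read, and EC50 values were derived from dose-response curves.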

Setting [1] is: HEK 293 hTGR5/CRE-Luc cells, 6 hours incubation, luciferase activity, Table 2, read-out: h-TGR5CRE-Luc EC50 (CRE-Luc).
Where [2] appears, read: h-TGR5 CRE-Luc EC50, Table 1, read-out: CRE-Luc (EC50).

Our source for the EC50 values is US8785488B2 (Exelixis Patent Company LLC, priority 2009, dated 2014).

Counter-ions that a name gives are not always drawn. Like-named read-outs stand apart in the source and are kept apart here.

Consider `CC(C)(c1ccc(Cl)cc1)c1nnc(SCc2ccc(F)cc2Cl)n1-c1ccc(F)cc1` [Example 6], for which the EC50 – broadly, the midpoint of the concentration-response curve – under setting [1] is 1000 to 10000 nM. On to `CC(C)(c1ccc(Cl)c(Cl)c1)c1cnc(SCc2c(F)cccc2CO)n1-c1ccc(F)cc1` [{2-[({5-[1-(3,4-dichlorophenyl)-1-methylethyl]-1-(4-fluorophenyl)-1H-imidazol-2-yl}thio)methyl]-3-fluorophenyl}methanol], for which, under setting [2], the EC50 is 100 to 1000 nM.

Consider `CC(C)(c1ccc(Cl)c(Cl)c1)c1cnc(SCc2c(F)cccc2Cl)n1-c1ccc(Cl)c(F)c1` [1-(4-chloro-3-fluorophenyl)-2-{[(2-chloro-6-fluorophenyl)methyl]thio}-5-[1-(3,4-dichlorophenyl)-1-methylethyl]-1H-imidazole], for which the EC50 under setting [2] lay within 100 to 1000 nM.

As for `COc1ccc(-c2cnc(SCc3c(F)cccc3Cl)n2-c2ccc(F)cc2)cc1OC` [5-[3,4-bis(methyloxy)phenyl]-2-{[(2-chloro-6-fluorophenyl)methyl]thio}-1-(4-fluorophenyl)-1H-imidazole], the EC50 under setting [2] lay in the range of 1000 to 10000 nM.

For `CC(C)(c1ccc(Cl)c(Cl)c1)c1cnc(SCc2ccc(F)cc2Cl)n1-c1ccc(F)c(OCC(=O)O)c1` [{[5-(2-{[(2-chloro-4-fluorophenyl)methyl]thio}-5-[1-(3,4-dichlorophenyl)-1-methylethyl]-1H-imidazol-1-yl)-2-fluorophenyl]oxy}acetic acid], the EC50 under setting [2] was 1000 to 10000 nM. Regarding `Fc1ccc(-n2c(Cc3ccc(F)c(F)c3)cnc2SCc2ccc(F)cc2Cl)cc1` [2-{[(2-chloro-4-fluorophenyl)methyl]thio}-5-[(3,4-difluorophenyl)methyl]-1-(4-fluorophenyl)-1H-imidazole], the EC50 under setting [2] is 100 to 1000 nM. As for `Fc1ccc(-n2c(Cc3ccc(F)c(Cl)c3)nnc2SCc2c(F)cccc2Cl)cc1` [Example 15], the EC50 under setting [1] was in the range of 1000 to 10000 nM. With `CC(C)(O)COc1cc(C(C)(C)c2cnc(SCc3c(F)cccc3Cl)n2-c2ccc(F)cc2)ccc1Cl` [1-[(2-chloro-5-{1-[2-{[(2-chloro-6-fluorophenyl)methyl]thio}-1-(4-fluorophenyl)-1H-imidazol-5-yl]-1-methylethyl}phenyl)oxy]-2-methylpropan-2-ol], the EC50 under setting [2] fell in the range of 100 to 1000 nM.

Regarding `COc1ccc(Cc2nnc(SCc3ccc(F)cc3Cl)n2-c2ccc(F)cc2)cc1` [Example 28, hydrochloride], under setting [1], the EC50 lay within 1000 to 10000 nM. As to `CC(C)(c1ccc(Cl)c(Cl)c1)c1cnc(SCc2ccc(C(=O)NCCN3CCOCC3)cc2F)n1-c1ccc(F)cc1` [4-[({5-[1-(3,4-dichlorophenyl)-1-methylethyl]-1-(4-fluorophenyl)-1H-imidazol-2-yl}thio)methyl]-3-fluoro-N-(2-morpholin-4-ylethyl)benzamide], the EC50 under setting [2] lay within 100 to 1000 nM. As for `CC(C)(c1ccc2c(c1)OCO2)c1cnc(SCc2c(F)cccc2Cl)n1-c1ccc(F)cc1` [5-[1-(1,3-benzodioxol-5-yl)-1-methylethyl]-2-{[(2-chloro-6-fluorophenyl)methyl]thio}-1-(4-fluorophenyl)-1H-imidazole], under setting [2], the concentration giving a half-maximal response (EC50) is less than 100 nM. For the compound `CC(C)(c1ccc(F)c(F)c1)c1cnc(SCc2ccc(F)cc2Cl)n1-c1ccc(F)cc1` [2-{[(2-chloro-4-fluorophenyl)methyl]thio}-5-[1-(3,4-difluorophenyl)-1-methylethyl]-1-(4-fluorophenyl)-1H-imidazole], under setting [2], the EC50 lay in the range of 100 to 1000 nM. Same read-out and setting: as for `CC(C)(c1ccc(Cl)c(Cl)c1)c1cnc(SCc2ccc(C#N)c(Cl)c2)n1-c1ccc(F)cc1` [2-chloro-4-[({5-[1-(3,4-dichlorophenyl)-1-methylethyl]-1-(4-fluorophenyl)-1H-imidazol-2-yl}thio)methyl]benzonitrile], the figure is 100 to 1000 nM; as for `CC(C)(c1ccc(Cl)c(Cl)c1)c1cnc(SCc2c(F)cccc2Cl)n1-c1ccc(F)c(Cl)c1` [1-(3-chloro-4-fluorophenyl)-2-{[(2-chloro-6-fluorophenyl)methyl]thio}-5-[1-(3,4-dichlorophenyl)-1-methylethyl]-1H-imidazole], less than 100 nM.

Turning to `CC(C)(c1ccc2cccnc2c1)c1nnc(SCc2c(F)cc(C(=O)O)cc2F)n1-c1ccc(F)cc1` [Example 50], under setting [1], the EC50 was 1000 to 10000 nM. In the case of `CC(C)(c1ccc(S(C)(=O)=O)cc1)c1cnc(SCc2c(F)cc(C(=O)O)cc2F)n1-c1ccc(F)c(F)c1` [4-({[1-(3,4-difluorophenyl)-5-{1-methyl-1-[4-(methylsulfonyl)phenyl]ethyl}-1H-imidazol-2-yl]thio}methyl)-3,5-difluorobenzoic acid], the EC50 under setting [2] was in the range of 1000 to 10000 nM. For `CC(C)(c1ccc(Cl)c(Cl)c1)c1cnc(COc2ccc(C(N)=O)cn2)n1-c1ccc(F)cc1` [6-[({5-[1-(3,4-dichlorophenyl)-1-methylethyl]-1-(4-fluorophenyl)-1H-imidazol-2-yl}methyl)oxy]pyridine-3-carboxamide], the EC50 under setting [2] is 100 to 1000 nM. In the case of `CCOC(=O)c1cc(F)c(CSc2nc(C)c(C(C)(C)c3ccc(Cl)c(OC)c3)n2-c2ccc(F)cc2)c(Cl)c1` [ethyl 3-chloro-4-({[5-{1-[4-chloro-3-(methyloxy)phenyl]-1-methylethyl}-1-(4-fluorophenyl)-4-methyl-1H-imidazol-2-yl]thio}methyl)-5-fluorobenzoate], the EC50 under setting [2] was in the range of 100 to 1000 nM.

In the case of `CC(C)(c1ccc(Cl)c(Cl)c1)c1cnc(SCC2CCN(S(C)(=O)=O)CC2)n1-c1ccc(F)c(F)c1` [4-[({5-[1-(3,4-dichlorophenyl)-1-methylethyl]-1-(3,4-difluorophenyl)-1H-imidazol-2-yl}thio)methyl]-1-(methylsulfonyl)piperidine], the EC50 under setting [2] was less than 100 nM. As for `CC(C)NC(=O)N1CCC(CSc2ncc(C(C)(C)c3ccc(F)c(F)c3)n2-c2ccc(F)cc2)CC1` [4-[({5-[1-(3,4-difluorophenyl)-1-methylethyl]-1-(4-fIuorophenyl)-1H-imidazol-2-yl}thio)methyl]-N-(1-methylethyl)piperidine-1-carboxamide], the EC50 under setting [2] was in the range of 100 to 1000 nM. Still for that read-out and setting: the figure for `CC(C)(O)c1ccc(CSc2ncc(C(C)(C)c3ccc(Cl)c(Cl)c3)n2-c2ccc(F)cc2)c(F)c1` [2-{4-[({5-[1-(3,4-dichlorophenyl)-1-methylethyl]-1-(4-fluorophenyl)-1H-imidazol-2-yl}thio)methyl]-3-fluorophenyl}propan-2-ol] is 100 to 1000 nM. As for `CC(C)(c1ccc(Cl)c(Cl)c1)c1cnc(SCc2c(F)cccc2Cl)n1C1CCCC1` [2-{[(2-chloro-6-fluorophenyl)methyl]thio}-1-cyclopentyl-5-[1-(3,4-dichlorophenyl)-1-methylethyl]-1H-imidazole], the EC50 under setting [2] lay within 1000 to 10000 nM. As to `Fc1ccc(-n2c(Cc3ccc(Cl)c(Cl)c3)nnc2SCc2ccc(F)cc2C(F)(F)F)cc1` [Example 33], the EC50 under setting [1] was in the range of 1000 to 10000 nM. Take `CC(C)(C(=O)O)c1ccc(CSc2ncc(C(C)(C)c3ccc(Cl)c(Cl)c3)n2-c2ccc(F)cc2)c(F)c1` [2-{4-[({5-[1-(3,4-dichlorophenyl)-1-methylethyl]-1-(4-fluorophenyl)-1H-imidazol-2-yl}thio)methyl]-3-fluorophenyl}-2-methylpropanoic acid]: under setting [2], the EC50 is 100 to 1000 nM.

`CC(C)(c1ccc(Cl)c(Cl)c1)c1cnc(S(=O)(=O)Cc2ccc(F)c(C(F)(F)F)c2)n1-c1ccc(F)cc1` [5-[1-(3,4-dichlorophenyl)-1-methylethyl]-1-(4-fluorophenyl)-2-({[4-fluoro-3-(trifluoromethyl)phenyl]methyl}sulfonyl)-1H-imidazole]: under setting [2], the EC50 lay within 100 to 1000 nM. `CC(C)(c1ccc(Cl)c(Cl)c1)c1cnc(SCc2ccc(-c3nnn[nH]3)c(Cl)c2)n1-c1ccc(F)cc1` [5-{2-chloro-4-[({5-[1-(3,4-dichlorophenyl)-1-methylethyl]-1-(4-fluorophenyl)-1H-imidazol-2-yl}thio)methyl]phenyl}-1H-tetrazole]: under setting [2], the EC50 lay within 100 to 1000 nM. `COc1cc(C(C)(C)c2cnc(SCC3CCN(CC(=O)O)CC3)n2-c2ccc(F)cc2)ccc1Cl` [[4-({[5-{1-[4-chloro-3-(methyloxy)phenyl]-1-methylethyl}-1-(4-fluorophenyl)-1H-imidazol-2-yl]thio}methyl)piperidin-1-yl]acetic acid]: the EC50 under setting [2] lay in the range of 1000 to 10000 nM. Take `CC(C)(c1ccc(Cl)c(Cl)c1)c1cnc(COc2ccc(C(=O)O)cc2Cl)n1-c1ccc(F)cc1` [3-chloro-4-[({5-[1-(3,4-dichlorophenyl)-1-methylethyl]-1-(4-fluorophenyl)-1H-imidazol-2-yl}methyl)oxy]benzoic acid]: the EC50 under setting [2] is 1000 to 10000 nM. Same read-out and setting: as for `CC(C)(C)OC(=O)N1CCC(NCc2ncc(C(C)(C)c3ccc(Cl)c(Cl)c3)n2-c2ccc(F)cc2)CC1`, the figure is 1000 to 10000 nM; as for `CC(C)(c1ccc(Cl)c(Cl)c1)c1cnc(CSc2ccc(Cl)c(Cl)c2)n1-c1ccc(F)cc1` [5-[1-(3,4-dichlorophenyl)-1-methylethyl]-2-{[(3,4-dichlorophenyl)thio]methyl}-1-(4-fluorophenyl)-1H-imidazole], 100 to 1000 nM; as for `CC(C)(c1ccc(Cl)c(Cl)c1)c1cnc(SCC2CCCN(S(C)(=O)=O)C2)n1-c1ccc(F)cc1` (centres unmarked) [3-[({5-[1-(3,4-dichlorophenyl)-1-methylethyl]-1-(4-fluorophenyl)-1H-imidazol-2-yl}thio)methyl]-1-(methylsulfonyl)piperidine], 100 to 1000 nM.

As for `COc1ccc(C(C)(C)c2cnc(C(=O)Nc3ccc(F)c(Cl)c3)n2-c2ccc(F)cc2)cc1OC` [5-{1-[3,4-bis(methyloxy)phenyl]-1-methylethyl}-N-(3-chloro-4-fluorophenyl)-1-(4-fluorophenyl)-1H-imidazole-2-carboxamide], under setting [2], the EC50 lay within 1000 to 10000 nM.
